Laboratory results published in PubChem BioAssay AID248 (DTP/NCI, 2004).
Several values for one entry are separate records, joined by “and”; a condition that tells them apart may be missing. Identical values can stand only once. Toxic doses and inconclusive results are not listed. Cut-off read from the data, not from the text of the source: active = T/C of 150% or more; inactive = T/C below 125%.

Tested on: L1210 leukemia ip in BDF1 mice, survival T/C
Assay: NCI In Vivo Anticancer Drug Screen. Data for tumor model L1210 Leukemia (intraperitoneal) in B6D2F1 (BDF1) mice
Details: endpoint: mean survival time, higher = longer survival
Summary of the method: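 Survival endpoint. Drug-treated group vs vehicle group, expressed as T divided by C. Tumor passaged by transplantation.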

[1] = dose: 100.0 mg/kg/injection, schedule: Q01DX001 (ip), vehicle: saline with Tween-80
[2] = dose: 200.0 mg/kg/injection, schedule: Q01DX001 (ip), vehicle: saline with Tween-80
[3] = dose: 100.0 mg/kg/injection, schedule: Q04DX003 (ip), vehicle: saline with Tween-80
[4] = dose: 200.0 mg/kg/injection, schedule: Q04DX003 (ip), vehicle: saline with Tween-80
[5] = dose: 400.0 mg/kg/injection, schedule: Q04DX003 (ip), vehicle: saline with Tween-80
[6] = dose: 100.0 mg/kg/injection, schedule: Q04DX003 (ip), vehicle: saline
[7] = dose: 200.0 mg/kg/injection, schedule: Q04DX003 (ip), vehicle: saline
[8] = dose: 100.0 mg/kg/injection, schedule: Q01DX001 (ip), vehicle: other
[9] = dose: 200.0 mg/kg/injection, schedule: Q01DX001 (ip), vehicle: other
[10] = dose: 100.0 mg/kg/injection, schedule: Q01DX001 (ip), vehicle: carboxymethylcellulose (CMC)
[11] = dose: 200.0 mg/kg/injection, schedule: Q01DX001 (ip), vehicle: carboxymethylcellulose (CMC)
[12] = dose: 400.0 mg/kg/injection, schedule: Q01DX001 (ip), vehicle: carboxymethylcellulose (CMC)
[13] = dose: 100.0 mg/kg/injection, schedule: Q01DX009 (ip), vehicle: Klucel (hydroxypropylcellulose) (HPC)
[14] = dose: 100.0 mg/kg/injection, schedule: Q04DX003 (ip), vehicle: Klucel (hydroxypropylcellulose) (HPC)
[15] = dose: 200.0 mg/kg/injection, schedule: Q01DX009 (ip), vehicle: Klucel (hydroxypropylcellulose) (HPC)
[16] = dose: 200.0 mg/kg/injection, schedule: Q04DX003 (ip), vehicle: Klucel (hydroxypropylcellulose) (HPC)
[17] = dose: 400.0 mg/kg/injection, schedule: Q01DX009 (ip), vehicle: Klucel (hydroxypropylcellulose) (HPC)
[18] = dose: 400.0 mg/kg/injection, schedule: Q04DX003 (ip), vehicle: Klucel (hydroxypropylcellulose) (HPC)
[19] = dose: 100.0 mg/kg/injection, schedule: Q04DX002 (ip), vehicle: saline with Tween-80
[20] = dose: 200.0 mg/kg/injection, schedule: Q04DX002 (ip), vehicle: saline with Tween-80
[21] = dose: 400.0 mg/kg/injection, schedule: Q04DX003 (ip), vehicle: saline

Measured: T/C

COc1ccccc1N=NN(C)C
inactive: dose: 1.0 mg/kg/injection, schedule: Q01DX009 (ip), vehicle: Klucel (hydroxypropylcellulose) (HPC) 115 % of control | dose: 3.0 mg/kg/injection, schedule: Q01DX009 (ip), vehicle: Klucel (hydroxypropylcellulose) (HPC) 101 % of control | dose: 3.12 mg/kg/injection, schedule: Q01DX009 (ip), vehicle: Klucel (hydroxypropylcellulose) (HPC) 100 % of control | dose: 3.12 mg/kg/injection, schedule: Q04DX003 (ip), vehicle: Klucel (hydroxypropylcellulose) (HPC) 95 % of control | dose: 6.0 mg/kg/injection, schedule: Q01DX009 (ip), vehicle: Klucel (hydroxypropylcellulose) (HPC) 115 % of control | dose: 6.25 mg/kg/injection, schedule: Q01DX009 (ip), vehicle: Klucel (hydroxypropylcellulose) (HPC) 108 % of control | dose: 6.25 mg/kg/injection, schedule: Q04DX003 (ip), vehicle: Klucel (hydroxypropylcellulose) (HPC) 109 % of control | dose: 12.5 mg/kg/injection, schedule: Q01DX009 (ip), vehicle: Klucel (hydroxypropylcellulose) (HPC) 94 % of control | dose: 12.5 mg/kg/injection, schedule: Q04DX003 (ip), vehicle: Klucel (hydroxypropylcellulose) (HPC) 113 % of control

CC(c1ccc(-c2ccccc2)cc1)C(Cl)c1ccccc1 (centres undefined)
inactive: [1] 91 % of control | [2] 91 % of control | dose: 400.0 mg/kg/injection, schedule: Q01DX001 (ip), vehicle: saline with Tween-80 93 % of control

CC(C)(C)OC(=O)N/N=C/c1ccc([N+](=O)[O-])s1
inactive: [3] 94 % of control | [4] 98 % of control | [5] 89 % of control

CCCCC(=O)N/N=C/c1ccc(NC(C)=O)cc1
inactive: dose: 100.0 mg/kg/injection, schedule: Q01DX001 (ip), vehicle: saline 102 % of control | dose: 200.0 mg/kg/injection, schedule: Q01DX001 (ip), vehicle: saline 102 % of control | dose: 400.0 mg/kg/injection, schedule: Q01DX001 (ip), vehicle: saline 102 % of control

O=C1CCC2CCC(CC2)O1
inactive: dose: 5.0 mg/kg/injection, schedule: Q01DX001 (ip), vehicle: saline 119 % of control | dose: 10.0 mg/kg/injection, schedule: Q01DX001 (ip), vehicle: saline 92 % of control | dose: 20.0 mg/kg/injection, schedule: Q01DX001 (ip), vehicle: saline 97 % of control

O=C1NCCN1c1ccccn1
inactive: [6] 100 % of control | [7] 97 % of control

COC1(OC)CCP(=S)(c2ccccc2)CC1C#N (centres undefined)
inactive: [3] 100 % of control | [4] 101 % of control | [5] 92 % of control

COC(=O)C1(CN(C)C)CCCC(CN(C)C)(C(=O)OC)C1=O (centres undefined)
inactive: dose: 50.0 mg/kg/injection, schedule: Q01DX Z (ip), vehicle: carboxymethylcellulose (CMC) 100 % of control and 106 % of control | dose: 75.0 mg/kg/injection, schedule: Q01DX Z (ip), vehicle: carboxymethylcellulose (CMC) 106 % of control and 109 % of control | dose: 115.0 mg/kg/injection, schedule: Q01DX Z (ip), vehicle: carboxymethylcellulose (CMC) 113 % of control | dose: 160.0 mg/kg/injection, schedule: Q01DX Z (ip), vehicle: carboxymethylcellulose (CMC) 106 % of control and 113 % of control

O=C1CCN/C(=N\[N+](=O)[O-])N1
inactive: [1] 101 % of control | [2] 106 % of control

Nc1c(Br)cc(Br)cc1C(=O)O
inactive: [8] 97 % of control | [9] 97 % of control

NC(=O)c1cc(Cl)ccc1N
inactive: [8] 97 % of control | [9] 97 % of control | dose: 400.0 mg/kg/injection, schedule: Q01DX001 (ip), vehicle: other 105 % of control

COc1ccc(NC(=O)C(Cl)Cl)cc1NC(C)=O
inactive: [10] 96 % of control | [11] 108 % of control | [12] 91 % of control

CC/C(C)=C\CC/C(C)=C/COc1cccc(C(C)=O)c1
inactive: dose: 75.0 mg/kg/injection, schedule: Q01DX009 (ip), vehicle: carboxymethylcellulose (CMC) 94 % of control | dose: 150.0 mg/kg/injection, schedule: Q01DX009 (ip), vehicle: carboxymethylcellulose (CMC) 90 % of control | dose: 300.0 mg/kg/injection, schedule: Q01DX009 (ip), vehicle: carboxymethylcellulose (CMC) 92 % of control

c1ccc2c(C3OCC4(CCC4)CO3)cccc2c1
inactive: [13] 91 % of control | [14] 91 % of control | [15] 96 % of control | [16] 100 % of control | [17] 97 % of control | [18] 94 % of control

CCC(C)NCCOC(=O)C(c1ccccc1)c1ccccc1 (centres undefined)
inactive: dose: 75.0 mg/kg/injection, schedule: Q01DX001 (ip), vehicle: other 93 % of control

Cc1cccc(NC(=O)NCCN(C)Cc2ccccc2)c1
inactive: dose: 50.0 mg/kg/injection, schedule: Q01DX001 (ip), vehicle: carboxymethylcellulose (CMC) 101 % of control | [10] 98 % of control | [11] 101 % of control | [12] 104 % of control

CP1(=O)CCC(=O)C1Br (centres undefined)
inactive: dose: 50.0 mg/kg/injection, schedule: Q04DX002 (ip), vehicle: saline with Tween-80 98 % of control | [19] 95 % of control | [20] 91 % of control

Cc1ccc(N2C(=O)CC(Sc3ccccc3N)C2=O)cc1 (centres undefined)
inactive: dose: 100.0 mg/kg/injection, schedule: Q01DX009 (ip), vehicle: other 114 % of control | [6] 86 % of control | dose: 200.0 mg/kg/injection, schedule: Q01DX009 (ip), vehicle: other 110 % of control | dose: 400.0 mg/kg/injection, schedule: Q01DX009 (ip), vehicle: other 93 % of control | [21] 86 % of control

CCC(C(=O)O)C(O)(CC(=O)O)C(=O)O (centres undefined)
inactive: [6] 98 % of control | [7] 101 % of control | [21] 95 % of control

Nc1c(-c2ccccc2)[nH][nH]c1=O
inactive: dose: 100.0 mg/kg/injection, schedule: Q01DX001 (ip), vehicle: Klucel (hydroxypropylcellulose) (HPC) 91 % of control | [13] 92 % of control | [14] 100 % of control | dose: 200.0 mg/kg/injection, schedule: Q01DX001 (ip), vehicle: Klucel (hydroxypropylcellulose) (HPC) 99 % of control | [15] 92 % of control | [16] 102 % of control | dose: 400.0 mg/kg/injection, schedule: Q01DX001 (ip), vehicle: Klucel (hydroxypropylcellulose) (HPC) 94 % of control | [17] 93 % of control | [18] 104 % of control

Cc1cccc(C)c1Nc1n[nH]c(=S)s1
inactive: [19] 102 % of control | [20] 105 % of control | dose: 400.0 mg/kg/injection, schedule: Q04DX002 (ip), vehicle: saline with Tween-80 105 % of control

[N-]=[N+]=Nc1cnn(-c2ccccc2)c(=O)c1Cl
inactive: dose: 18.75 mg/kg/injection, schedule: Q01DX009 (ip), vehicle: saline with Tween-80 105 % of control | dose: 37.5 mg/kg/injection, schedule: Q01DX009 (ip), vehicle: saline with Tween-80 92 % of control | dose: 75.0 mg/kg/injection, schedule: Q01DX009 (ip), vehicle: saline with Tween-80 101 % of control

CCCCCCCCCCNCCS
inactive: dose: 4.0 mg/kg/injection, schedule: Q01DX015 (ip), vehicle: carboxymethylcellulose (CMC) 105 % of control | dose: 5.0 mg/kg/injection, schedule: Q01DX001 (ip), vehicle: carboxymethylcellulose (CMC) 109 % of control | dose: 5.0 mg/kg/injection, schedule: Q04DX003 (ip), vehicle: saline sonified 101 % of control | dose: 8.0 mg/kg/injection, schedule: Q01DX015 (ip), vehicle: carboxymethylcellulose (CMC) 103 % of control | dose: 10.0 mg/kg/injection, schedule: Q01DX001 (ip), vehicle: carboxymethylcellulose (CMC) 103 % of control | dose: 10.0 mg/kg/injection, schedule: Q04DX003 (ip), vehicle: saline sonified 101 % of control | dose: 16.0 mg/kg/injection, schedule: Q01DX015 (ip), vehicle: carboxymethylcellulose (CMC) 101 % of control | dose: 20.0 mg/kg/injection, schedule: Q04DX003 (ip), vehicle: saline sonified 101 % of control | dose: 32.0 mg/kg/injection, schedule: Q01DX015 (ip), vehicle: carboxymethylcellulose (CMC) 103 % of control
